The source of these data is article PMC9356039, “Multifunctional synthetic nano-chaperone for peptide folding and intracellular delivery” (Nature Communications, 2022).

The test has as its system human liver cancer (HepG2) xenograft. Put plainly: Tumor growth inhibition, intratumoral injection. The format is in vivo, Balb/c male nude mice. The settings on record: HepG2 xenograft mice; intratumoral every 3 days, 14 days; 50 mg SNCP8/kg, 5 μmole st-p53pep/kg; n = 3; versus untreated control. The procedure:
All of animal experiments were conducted in accordance with the Institutional Animal Care and Use Committees (IACUC) of Seoul National University. 5-week old Balb/c male nude mice were purchased (ORIENT BIO, Korea). Mice were housed in an environmentally controlled room (23 °C, with 55 ± 5% humidity and 12 h / 12 h light–dark cycle). To prepare tumor-bearing mice, a suspension of the HepG2 cells (6 × 10^6 cells) in 100 µL of sterilized PBS was subcutaneously injected (n = 3, biologically independent animals). Tumor-bearing mice were reared until the tumor volumes reach ~50 mm^3 and used for experiments. […] The changes in tumor volume and body weight were monitored over 14 days. Tumor volumes were calculated by using the equation of 1/2 × length × (width)^2, where the length and width are the longest and shortest diameters (mm) of the tumor, respectively. […] Bright field and fluorescence images from mice were obtained overtime for 3 days by using fluorescence in vivo imaging system, FoBI (Neoscience, Korea). The relative intensity of FAM fluorescence attached to st-p53pep was calculated by using the region of interest (ROI) analysis. The half-life of FAM fluorescence decay was determined by exponential curve fitting method with Origin 2017 (OriginLab, USA).

With `CC(C)C[C@@H]1NC(=O)[C@H](CC(C)C)NC(=O)[C@H](CCCNC(=N)N)NC(=O)[C@H](Cc2c[nH]c3ccccc23)NC(=O)[C@H](CC(C)C)NC(=O)[C@H](CC(N)=O)NC(=O)[C@H](NC(=O)[C@H](Cc2ccccc2)NC(=O)[C@@H](NC(=O)[C@H](CCC(N)=O)NC(=O)[C@H](CCC(N)=O)NC(=O)[C@H](CO)NC(=O)[C@H](CCC(N)=O)NC(=O)CNC(=O)CNC(=O)c2ccc3c(c2)C(=O)OC32c3ccc(O)cc3Oc3cc(O)ccc32)[C@@H](C)O)CCCCNC(=O)CCc2cn(nn2)CCC[C@@H](C(=O)N[C@@H](CCC(N)=O)C(=O)N[C@@H](CC(N)=O)C(N)=O)NC1=O` [st-p53pep], the “growth of tumor volume (in words)” value is listed as “no notable difference”.
